Patent US20090123391A1, “Novel Formulations” (3M INNOVATIVE PROPERTIES COMPANY, priority 2006, published 2009)
Blank lines part the entries; values can stand above or below the compound they belong to.

Experiments:
[1] = Dose Through Unit (DTU) dose uniformity of MDI; assay type: physicochemical; settings: for overall mean dose delivered through the actuator, combined beginning and end of use: Example 5: Compound E in combination with Compound A, MDI 100/50 μg/act, target output Compound E 90 μg, Compound A 45 μg; for overall mean dose delivered through the actuator, combined beginning and end of use / overall mean dose of medicament delivered through the actuator, combining beginning and end of use doses: HFA 134a; for overall mean dose delivered through the actuator, combining beginning and end of use: Example 4: Compound A in combination with Compound D, HFA-134a MDI 100/100 μg/act, target output compound D 90 μg, compound A 90 μg; for overall mean dose of medicament delivered through the actuator, combining beginning and end of use doses: MDI, Compound A 22.5 μg
Method: The dose collection apparatus (500 ml separatory funnel with a cotton plug) was assembled and the flow rate was set to 20 L/min. Test units were stored at ambient conditions for two weeks after manufacture prior to DTU testing. For the testing at the beginning of the unit, the MDIs were primed two times with a priming actuator and four times to waste with the test actuator, shaking the units between each actuation. Two test actuations were collected in the dose collection apparatus, shaking the unit between actuations. The collection apparatus was rinsed with an appropriate volume of diluent, and the rinsate with the collected dose was analyzed by conventional HPLC analysis. For end of unit testing, the MDIs were actuated an additional 48 times to waste, shaking between each actuation. The MDIs were then actuated four times to waste through a new test actuator. Two test actuations were then collected in the dose collection apparatus, shaking the unit between actuations. The collection apparatus was rinsed with an appropriate volume of diluent, and the rinsate with the collected dose was analyzed by conventional HPLC analysis.
The reported results are the average of ten units at both the beginning and end of unit use.

[2] = Andersen Cascade Impactor (ACI) fine particle fraction of MDI; assay type: physicochemical; settings: for Fine Particle Fraction (FPF) expressed as percentage of the total dose target of Compound E, 100 μg and for Compound A, 50 μg: Example 5: Compound E in combination with Compound A, MDI 100/50 μg/act; for Fine Particle Fraction (FPF) expressed as percentage of the total dose target of Compound E, 100 μg and for Compound A, 50 μg / Fine Particle Fraction expressed as a percentage of the total dose target, for Compound B, 10 μg and for the Compound A, 25 μg / Fine Particle Fraction (FPF) expressed as a percentage of the total dose target, for Compound C, 12.5 μg and for Compound A, 25 μg: HFA 134a; for Fine Particle Fraction (FPF) expressed as a percentage of the total dose target, for Compound D, 100 μg, and for Compound A, 100 μg: Example 4: Compound A in combination with Compound D, HFA-134a MDI 100/100 μg/act; for Fine Particle Fraction expressed as a percentage of the total dose target, for Compound B, 10 μg and for the Compound A, 25 μg: Example 2: Compound A in combination with Compound B; for Fine Particle Fraction expressed as a percentage of the total dose target, for Compound B, 10 μg and for the Compound A, 25 μg / Fine Particle Fraction (FPF) expressed as a percentage of the total dose target, for Compound C, 12.5 μg and for Compound A, 25 μg: MDI; for Fine Particle Fraction (FPF) expressed as a percentage of the total dose target, for Compound C, 12.5 μg and for Compound A, 25 μg: Example 3: Compound A in combination with Compound C, 25/12.5 μg/act
Excerpt: The fine particle fraction of the aerosol formulations according to the invention may be measured by conventional techniques, for example, by cascade impaction by measuring particle size distribution. The Cascade Impactor is designed to mimic the human buccal cavity and bronchial tract and the cascade Impactor test is designed to reveal the amount of deposition of inhaled drug substance at various stages thereof. As used herein reference to the “cascade impaction” assay means determination of the deposition of the emitted dose in pressurised inhalations as defined in European Pharmacopoeia, Section 2.9.18, 5th edition “Preparations for Inhalation, Apparatus D”. Such techniques enable the “respirable fraction” of the aerosol formulations to be calculated. One method used to calculate the “respirable fraction” is by reference to “fine particle fraction” which is the amount of active ingredient collected in stages 3 to 5 (aerodynamic diameter 1.1-4.7 μm) which represents the lung, per actuation expressed as a percentage of the total amount of active ingredient delivered per actuation using the cascade impactor method described above. Earlier stages represent the aerosol device itself, the throat and the upper reaches of the bronchial tract, and the later stages representing potential systemic absorption through the wall of the lung which may cause serious side effects.
The Andersen Cascade Impactor Mark II (ACI) was assembled and the flow rate was set to 28.3 L/min. The units were primed four times with the test actuator prior to dose collection, shaking between actuations. Between 5 and 20 actuations were collected in the ACI assembly. The ACI was disassembled and the components were rinsed with an appropriate amount of solvent that ensures dissolution of all formulation ingredients. The rinsate was collected for analysis by conventional HPLC analysis.

[3] = 0.1% w/w of polymer of formula (II), 12 Week at 40° C./75% relative humidity
[4] = 0.1% w/w of polymer of formula (II), Initial

overall mean dose delivered through the actuator, combined beginning and end of use [1, 3]: 106%
overall mean dose delivered through the actuator, combined beginning and end of use [1, 4]: 104%
Fine Particle Fraction (FPF) expressed as percentage of the total dose target of Compound E, 100 μg and for Compound A, 50 μg [2, 3]: 28%
Fine Particle Fraction (FPF) expressed as percentage of the total dose target of Compound E, 100 μg and for Compound A, 50 μg [2, 4]: 26%
Structure (SMILES): COc1ccc(Nc2ccc(CCNCC(O)c3ccc(O)c4[nH]c(=O)ccc34)cc2)cc1-c1ccccc1 (stereo not drawn) [Compound E, N-{2-[4-(3-phenyl-4-methoxyphenyl)aminophenyl]ethyl}-2-hydroxy-2-(8-hydroxy-2(1H)-quinolinon-5-yl)ethylamine]

overall mean dose delivered through the actuator, combining beginning and end of use [1, 3]: 104%
overall mean dose delivered through the actuator, combining beginning and end of use [1, 4]: 101%
Fine Particle Fraction (FPF) expressed as a percentage of the total dose target, for Compound D, 100 μg, and for Compound A, 100 μg [2, 3]: 27%
Fine Particle Fraction (FPF) expressed as a percentage of the total dose target, for Compound D, 100 μg, and for Compound A, 100 μg [2, 4]: 32%
Structure (SMILES): OCc1cc([C@@H](O)CNCCCCCCOCCOCc2c(Cl)cccc2Cl)ccc1O [Compound D, 4-{(1R)-2-[(6-{2-[(2,6-dichlorobenzyl)oxy]ethoxy}hexyl)amino]-1-hydroxyethyl}-2-(hydroxymethyl) phenol]

overall mean dose of medicament delivered through the actuator, combining beginning and end of use doses ([1]; Example 2: Compound A in combination with Compound B, 25/10 μg/act, 0.1% w/w of polymer of formula (II), 12 Week at 40° C./75% relative humidity, target output Compound B 8.5 μg): 99%
overall mean dose of medicament delivered through the actuator, combining beginning and end of use doses ([1]; Example 2: Compound A in combination with Compound B, 25/10 μg/act, 0.1% w/w of polymer of formula (II), Initial, target output Compound B 8.5 μg): 98%
overall mean dose of medicament delivered through the actuator, combining beginning and end of use doses ([1]; Example 2: Compound A in combination with Compound B, 25/10 μg/act, surfactant-free, 12 Week at 40° C./75% relative humidity, target output Compound B 8.5 μg): 73%
overall mean dose of medicament delivered through the actuator, combining beginning and end of use doses ([1]; Example 2: Compound A in combination with Compound B, 25/10 μg/act, surfactant-free, Initial, target output Compound B 8.5 μg): 71%
Fine Particle Fraction expressed as a percentage of the total dose target, for Compound B, 10 μg and for the Compound A, 25 μg [2, 3]: 26%
Fine Particle Fraction expressed as a percentage of the total dose target, for Compound B, 10 μg and for the Compound A, 25 μg [2, 4]: 25%
Fine Particle Fraction expressed as a percentage of the total dose target, for Compound B, 10 μg and for the Compound A, 25 μg ([2]; surfactant-free, 12 Week at 40° C./75% relative humidity): 21%
Fine Particle Fraction expressed as a percentage of the total dose target, for Compound B, 10 μg and for the Compound A, 25 μg ([2]; surfactant-free, Initial): 20%
Structure (SMILES): O=CNc1cc([C@@H](O)CNCCc2ccc(NC[C@H](O)c3ccccc3)cc2)ccc1O [Compound B]

overall mean dose of medicament delivered through the actuator, combining beginning and end of use doses ([1]; Example 3: Compound A in combination with Compound C, 25/12.5 μg/act, 0.1% w/w polymer of formula (II), 12 Week at 40° C./75 relative humidity, target output Compound C 11.3 μg): 112%
overall mean dose of medicament delivered through the actuator, combining beginning and end of use doses ([1]; Example 3: Compound A in combination with Compound C, 25/12.5 μg/act, 0.1% w/w polymer of formula (II), Initial, target output Compound C 11.3 μg): 96%
overall mean dose of medicament delivered through the actuator, combining beginning and end of use doses ([1]; Example 3: Compound A in combination with Compound C, 25/12.5 μg/act, surfactant-free, 12 Week at 40° C./75 relative humidity, target output Compound C 11.3 μg): 90%
overall mean dose of medicament delivered through the actuator, combining beginning and end of use doses ([1]; Example 3: Compound A in combination with Compound C, 25/12.5 μg/act, surfactant-free, Initial, target output Compound C 11.3 μg): 80%
Fine Particle Fraction (FPF) expressed as a percentage of the total dose target, for Compound C, 12.5 μg and for Compound A, 25 μg ([2]; 0.1% w/w polymer of formula (II), 12 Week 40° C./75 relative humidity): 25%
Fine Particle Fraction (FPF) expressed as a percentage of the total dose target, for Compound C, 12.5 μg and for Compound A, 25 μg ([2]; 0.1% w/w polymer of formula (II), Initial): 28%
Fine Particle Fraction (FPF) expressed as a percentage of the total dose target, for Compound C, 12.5 μg and for Compound A, 25 μg ([2]; surfactant-free, 12 Week 40° C./75 relative humidity): 21%
Fine Particle Fraction (FPF) expressed as a percentage of the total dose target, for Compound C, 12.5 μg and for Compound A, 25 μg ([2]; surfactant-free, Initial): 14%
Structure (SMILES): NS(=O)(=O)c1cccc(CCCCOCCCCCCNC[C@H](O)c2ccc(O)c(CO)c2)c1 [Compound C, 3-(4-{[6-({(2R)-2-hydroxy-2-[4-hydroxy-3-(hydroxymethyl)-phenyl]ethyl}amino)hexyl]oxy}butyl)benzenesulfonamide]
